Values joined by “and” are separate entries in the source; they are usually repeats but may differ in a detail not shown here. Equal entries are not always repeated. Toxic doses and inconclusive results are not listed. No stated cut-off is given here; in the data, active means T/C of 150% or more; inactive means T/C below 125%.
System: L1210 leukemia ip in BDF1 mice, survival T/C
Assay: NCI In Vivo Anticancer Drug Screen. Data for tumor model L1210 Leukemia (intraperitoneal) in B6D2F1 (BDF1) mice
Conditions: endpoint: mean survival time, higher = longer survival
Outline: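 Antitumor effect is assessed in tumor-bearing animals. Survival in the compound arm is compared with a vehicle-dosed control arm and expressed as their quotient.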

[1] = dose: 100.0 mg/kg/injection, schedule: Q04DX002 (ip), vehicle: Klucel (hydroxypropylcellulose) (HPC)
[2] = dose: 200.0 mg/kg/injection, schedule: Q04DX002 (ip), vehicle: Klucel (hydroxypropylcellulose) (HPC)
[3] = dose: 400.0 mg/kg/injection, schedule: Q04DX002 (ip), vehicle: Klucel (hydroxypropylcellulose) (HPC)
[4] = dose: 100.0 mg/kg/injection, schedule: Q01DX001 (ip), vehicle: saline
[5] = dose: 200.0 mg/kg/injection, schedule: Q01DX001 (ip), vehicle: saline
[6] = dose: 400.0 mg/kg/injection, schedule: Q01DX001 (ip), vehicle: saline
[7] = dose: 100.0 mg/kg/injection, schedule: Q01DX001 (ip), vehicle: carboxymethylcellulose (CMC)
[8] = dose: 200.0 mg/kg/injection, schedule: Q01DX001 (ip), vehicle: carboxymethylcellulose (CMC)
[9] = dose: 400.0 mg/kg/injection, schedule: Q01DX001 (ip), vehicle: carboxymethylcellulose (CMC)
[10] = dose: 100.0 mg/kg/injection, schedule: Q01DX009 (ip), vehicle: Klucel (hydroxypropylcellulose) (HPC)
[11] = dose: 200.0 mg/kg/injection, schedule: Q01DX009 (ip), vehicle: Klucel (hydroxypropylcellulose) (HPC)
[12] = dose: 400.0 mg/kg/injection, schedule: Q01DX009 (ip), vehicle: Klucel (hydroxypropylcellulose) (HPC)
[13] = dose: 100.0 mg/kg/injection, schedule: Q01DX009 (ip), vehicle: saline with Tween-80
[14] = dose: 100.0 mg/kg/injection, schedule: Q04DX003 (ip), vehicle: saline with Tween-80
[15] = dose: 200.0 mg/kg/injection, schedule: Q01DX009 (ip), vehicle: saline with Tween-80
[16] = dose: 200.0 mg/kg/injection, schedule: Q04DX003 (ip), vehicle: saline with Tween-80
[17] = dose: 400.0 mg/kg/injection, schedule: Q04DX003 (ip), vehicle: saline with Tween-80
[18] = dose: 100.0 mg/kg/injection, schedule: Q01DX001 (ip), vehicle: Klucel (hydroxypropylcellulose) (HPC)
[19] = dose: 200.0 mg/kg/injection, schedule: Q01DX001 (ip), vehicle: Klucel (hydroxypropylcellulose) (HPC)
[20] = dose: 100.0 mg/kg/injection, schedule: Q04DX003 (ip), vehicle: Klucel (hydroxypropylcellulose) (HPC)
[21] = dose: 200.0 mg/kg/injection, schedule: Q04DX003 (ip), vehicle: Klucel (hydroxypropylcellulose) (HPC)
[22] = dose: 400.0 mg/kg/injection, schedule: Q04DX003 (ip), vehicle: Klucel (hydroxypropylcellulose) (HPC)
[23] = dose: 100.0 mg/kg/injection, schedule: Q01DX009 (ip), vehicle: carboxymethylcellulose (CMC)
[24] = dose: 100.0 mg/kg/injection, schedule: Q04DX003 (ip), vehicle: carboxymethylcellulose (CMC)
[25] = dose: 200.0 mg/kg/injection, schedule: Q01DX009 (ip), vehicle: carboxymethylcellulose (CMC)
[26] = dose: 200.0 mg/kg/injection, schedule: Q04DX003 (ip), vehicle: carboxymethylcellulose (CMC)
[27] = dose: 400.0 mg/kg/injection, schedule: Q01DX009 (ip), vehicle: carboxymethylcellulose (CMC)
[28] = dose: 400.0 mg/kg/injection, schedule: Q04DX003 (ip), vehicle: carboxymethylcellulose (CMC)

Measured: T/C

O=[N+]([O-])c1cc2c(cc1Br)-c1ccccc1C2
inactive: dose: 100.0 mg/kg/injection, schedule: Q01DX005 (ip), vehicle: Klucel (hydroxypropylcellulose) (HPC) 98 % of control | [1] 93 % of control | dose: 200.0 mg/kg/injection, schedule: Q01DX005 (ip), vehicle: Klucel (hydroxypropylcellulose) (HPC) 94 % of control | [2] 111 % of control | dose: 400.0 mg/kg/injection, schedule: Q01DX005 (ip), vehicle: Klucel (hydroxypropylcellulose) (HPC) 122 % of control | [3] 117 % of control

FC(F)OC(F)(F)C(F)Cl (stereo not drawn)
inactive: [4] 89 % of control | [5] 89 % of control | [6] 97 % of control

CC(=O)OCCOC(C)=O
inactive: [4] 103 % of control | [5] 97 % of control | [6] 94 % of control

COC1=C(NCCc2ccccc2)C(=O)C(OC)=C(NCCc2ccccc2)C1=O
inactive: dose: 50.0 mg/kg/injection, schedule: Q01DX001 (ip), vehicle: carboxymethylcellulose (CMC) 96 % of control | [7] 94 % of control | [8] 89 % of control | [9] 89 % of control

CCOC(=O)C(Cc1ccccc1)(NC=O)C(=O)OCC
inactive: [10] 94 % of control | [11] 98 % of control | [12] 96 % of control

OCCC1COc2ccccc2O1 (stereo not drawn)
inactive: [7] 97 % of control | [8] 95 % of control | [9] 103 % of control

C=CCOC(=O)c1ccccc1N
inactive: [13] 98 % of control | [14] 104 % of control | [15] 98 % of control | [16] 101 % of control

CCO/C=C1\SC(=S)N(Cc2ccccc2)C1=O
inactive: [14] 94 % of control | [16] 99 % of control | [17] 102 % of control

CCOC(=O)C1C(C)NC(C)C(C(=O)OCC)C1c1ccccc1Cl (stereo not drawn)
inactive: [10] 97 % of control | [11] 98 % of control | [12] 93 % of control

OC1CSC1.[Cl][Hg][Cl]
inactive: dose: 5.0 mg/kg/injection, schedule: Q01DX001 (ip), vehicle: carboxymethylcellulose (CMC) 94 % of control | dose: 10.0 mg/kg/injection, schedule: Q01DX001 (ip), vehicle: carboxymethylcellulose (CMC) 100 % of control | dose: 20.0 mg/kg/injection, schedule: Q01DX001 (ip), vehicle: carboxymethylcellulose (CMC) 91 % of control

Cc1cc(Cl)ccc1OC(=O)NC1CCCCC1
inactive: [1] 107 % of control | [2] 96 % of control | [3] 107 % of control

COc1ccc2c(c1OC)C1C3CC=CC3C2C2=[N+]1CCc1cc3c(cc12)OCO3 (stereo not drawn)
inactive: dose: 1.56 mg/kg/injection, schedule: Q01DX009 (ip), vehicle: saline 102 % of control | dose: 3.12 mg/kg/injection, schedule: Q01DX009 (ip), vehicle: saline 93 % of control | dose: 6.25 mg/kg/injection, schedule: Q01DX009 (ip), vehicle: saline 98 % of control | dose: 12.5 mg/kg/injection, schedule: Q01DX009 (ip), vehicle: saline 113 % of control

O=C(COc1ccc(Cl)c(Cl)c1)Nc1ccc[n+](Cc2cccc(S(=O)(=O)F)c2)c1
inactive: [18] 96 % of control | [19] 97 % of control

CN(C)CCOC(=O)c1ccccc1C=O
inactive: [1] 105 % of control | [2] 98 % of control | [3] 102 % of control

CCOc1ccc(NC(=O)C(Br)C(Br)c2ccccc2)cc1 (stereo not drawn)
inactive: [10] 100 % of control | [11] 96 % of control | [12] 91 % of control

N#CCCP(CCC#N)CCP(CCC#N)CCC#N
inactive: [14] 96 % of control | [16] 89 % of control | [17] 86 % of control

NC(=O)c1cc2ccccc2[n+](Cc2ccc(F)cc2)c1
inactive: dose: 75.0 mg/kg/injection, schedule: Q01DX001 (ip), vehicle: saline 107 % of control

S=C(SSC(=S)N1CCCCC1)N1CCCCC1
inactive: dose: 100.0 mg/kg/injection, schedule: Q04DX003 (ip), vehicle: saline 104 % of control | dose: 200.0 mg/kg/injection, schedule: Q04DX003 (ip), vehicle: saline 98 % of control | dose: 400.0 mg/kg/injection, schedule: Q04DX003 (ip), vehicle: saline 101 % of control

CC(=O)Nc1ccc(S(=O)(=O)Nc2ccc(N(CCCl)CCCl)cc2)cc1
inactive: dose: 50.0 mg/kg/injection, schedule: Q04DX002 (ip), vehicle: saline with Tween-80 107 % of control | dose: 100.0 mg/kg/injection, schedule: Q04DX002 (ip), vehicle: saline with Tween-80 110 % of control | dose: 200.0 mg/kg/injection, schedule: Q04DX002 (ip), vehicle: saline with Tween-80 107 % of control | dose: 400.0 mg/kg/injection, schedule: Q04DX002 (ip), vehicle: saline with Tween-80 110 % of control

c1ccc(-c2ccc([Si](c3ccccc3)(c3ccc(-c4ccccc4)cc3)c3ccc(-c4ccccc4)cc3)cc2)cc1
inactive: dose: 50.0 mg/kg/injection, schedule: Q01DX009 (ip), vehicle: Klucel (hydroxypropylcellulose) (HPC) 91 % of control | dose: 50.0 mg/kg/injection, schedule: Q04DX003 (ip), vehicle: Klucel (hydroxypropylcellulose) (HPC) 93 % of control | [10] 93 % of control | [20] 89 % of control | [11] 93 % of control | [21] 88 % of control

OB(O)C1=CC(c2ccccc2)(c2ccccc2)N=C1
inactive: [18] 103 % of control | [19] 94 % of control | dose: 400.0 mg/kg/injection, schedule: Q01DX001 (ip), vehicle: Klucel (hydroxypropylcellulose) (HPC) 92 % of control

O=C1Nc2ccccc2/C1=N/N=C/c1cc(Cl)cc(Cl)c1O
inactive: [13] 90 % of control | [14] 90 % of control | [15] 92 % of control | [16] 90 % of control | dose: 400.0 mg/kg/injection, schedule: Q01DX009 (ip), vehicle: saline with Tween-80 91 % of control | [17] 91 % of control

CC12C(=O)OC(=O)C1C1C=CC2CC1 (stereo not drawn)
inactive: [14] 101 % of control | [16] 98 % of control | [17] 101 % of control

CCC(C)NC(=O)Oc1cccc(NC(=O)N(C)C)c1 (stereo not drawn)
inactive: [14] 92 % of control | [16] 89 % of control | [17] 90 % of control

O=Cc1ccc(N2CCCCC2)cc1
inactive: [10] 100 % of control | [20] 101 % of control | [11] 107 % of control | [21] 95 % of control | [22] 89 % of control

C[S+](C)CC(=O)c1ccc(Br)cc1
inactive: [20] 97 % of control | [21] 95 % of control | [22] 101 % of control

Cc1cc2oc(=O)cc(N3CCOCC3)c2c(=O)o1
inactive: [13] 117 % of control | [15] 114 % of control

COc1ccc(C(=O)N/N=C/c2cccc([N+](=O)[O-])c2)cc1
inactive: [7] 98 % of control | [23] 90 % of control and 92 % of control | dose: 100.0 mg/kg/injection, schedule: Q04DX002 (ip), vehicle: other 98 % of control | [24] 98 % of control | [8] 97 % of control | [25] 101 % of control and 90 % of control | dose: 200.0 mg/kg/injection, schedule: Q04DX002 (ip), vehicle: other 95 % of control | [26] 98 % of control | [9] 93 % of control | [27] 95 % of control and 96 % of control | dose: 400.0 mg/kg/injection, schedule: Q04DX002 (ip), vehicle: other 95 % of control | [28] 102 % of control

CN(C)c1ccccc1C#N
inactive: [23] 93 % of control and 103 % of control | dose: 100.0 mg/kg/injection, schedule: Q04DX002 (ip), vehicle: carboxymethylcellulose (CMC) 108 % of control | [24] 106 % of control | [25] 98 % of control and 104 % of control | dose: 200.0 mg/kg/injection, schedule: Q04DX002 (ip), vehicle: carboxymethylcellulose (CMC) 94 % of control | [26] 101 % of control | [27] 113 % of control | dose: 400.0 mg/kg/injection, schedule: Q04DX002 (ip), vehicle: carboxymethylcellulose (CMC) 115 % of control | [28] 98 % of control

Reference: PubChem BioAssay AID248 (DTP/NCI, 2004)
